Laboratory results reported in the supplement of paper PMC10307832.

Assays:
Assay in all cases: relative viability (nuclei count vs DMSO), 5 days (fraction); higher = more cells survive
[1] = compound: CCC1=CN=CN=C1N2CCN(CC2)CC3=NC4=C(N3)C=C(C=C4)C(F)(F)F + CC(C)C[C@H](NC(=O)[C@H](Cc1ccccc1)NC(=O)c1cnccn1)B(O)O [Bortezomib] (partner 0.002 µM)
Method in brief: (§1)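 Medians of duplicate plates are given as relative viability. That measure is the nuclei count in treated wells divided by the count in vehicle wells. Counts were taken on 4× images of lung cancer cell lines in 1536-well plates, 5 days after pin-tool dosing the day after seeding with one drug alone or a fixed anchor-drug dose plus five library-drug doses (not always all listed) in √10 steps.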

[2] = compound: CCC1=CN=CN=C1N2CCN(CC2)CC3=NC4=C(N3)C=C(C=C4)C(F)(F)F + COc1cc2c(Oc3ccc(NC(=O)C4(C(=O)Nc5ccc(F)cc5)CC4)cc3F)ccnc2cc1OCCCN1CCOCC1 [Foretinib] (partner 0.25 µM)
Method in brief: as §1

[3] = compound: CCn1c(-c2nonc2N)nc2cnc(Oc3cccc(NC(=O)c4ccc(OCCN5CCOCC5)cc4)c3)cc21 + Cc1cc(Nc2cc(N3CCN(C)CC3)nc(Sc3ccc(NC(=O)C4CC4)cc3)n2)n[nH]1 [Tozasertib] (partner 0.1 µM)
Method in brief: as §1

Mirin + Vorinostat = compound: N=C1NC(=O)/C(=C/c2ccc(O)cc2)S1 [Mirin] + O=C(CCCCCCC(=O)Nc1ccccc1)NO [Vorinostat] (partner 1 µM)
Method in brief: as §1

Cell Line	relative viability ([1]; first compound 0.04 µM)	relative viability ([1]; first compound 0.1265 µM)	relative viability ([1]; first compound 0.4 µM)	relative viability ([1]; first compound 1.265 µM)	relative viability ([1]; first compound 4 µM)	relative viability ([2]; first compound 0.04 µM)	relative viability ([2]; first compound 0.1265 µM)	relative viability ([2]; first compound 0.4 µM)	relative viability ([2]; first compound 1.265 µM)	relative viability ([2]; first compound 4 µM)	relative viability ([3]; first compound 0.04 µM)	relative viability ([3]; first compound 0.1265 µM)	relative viability ([3]; first compound 0.4 µM)	relative viability ([3]; first compound 1.265 µM)	relative viability ([3]; first compound 4 µM)	relative viability (Mirin + Vorinostat; first compound 0.25 µM)	relative viability (Mirin + Vorinostat; first compound 0.7906 µM)	relative viability (Mirin + Vorinostat; first compound 2.5 µM)	relative viability (Mirin + Vorinostat; first compound 7.906 µM)	relative viability (Mirin + Vorinostat; first compound 25 µM)
NCI-H1437	0.528	0.484	0.431	0.474	0.504	1.23	1.14	1.15	1.15	1.08	0.432	0.382	0.383	0.315	0.314	0.88	0.955	0.875	0.896	1.02
NCI-H1650	0.18	0.222	0.199	0.211	0.19	1.26	0.893	0.931	–	0.808	0.469	0.394	0.386	0.223	0.25	0.497	0.656	0.51	0.482	0.495
NCI-H1651	0.876	0.926	0.953	0.851	0.96	0.934	0.704	0.861	0.709	0.667	0.556	0.733	0.718	0.528	0.334	0.224	0.554	0.478	0.567	0.591
NCI-H1666	0.799	0.714	0.896	0.811	0.779	0.88	0.923	0.97	0.882	0.889	0.65	0.675	0.582	0.368	0.326	1.01	1.23	1.01	0.928	0.938
NCI-H1734	0.919	0.853	0.907	–	0.854	0.828	0.811	0.874	0.816	0.765	0.223	0.264	0.234	0.179	0.212	0.797	0.688	0.783	0.693	0.735
NCI-H1755	1.02	0.882	0.953	0.816	1.06	0.895	0.86	0.844	0.743	0.88	0.527	0.58	0.534	0.416	0.349	0.761	0.62	0.863	0.59	0.824
NCI-H1915	1.01	0.907	0.966	0.962	1.01	1.11	1.06	1.04	0.943	0.996	0.499	0.457	0.417	0.396	0.406	0.527	0.498	0.558	0.341	0.52
NCI-H1975	0.449	0.341	0.363	0.335	0.318	1	0.945	0.986	0.829	0.803	0.661	0.549	0.491	0.121	0.0969	0.696	0.777	0.718	0.703	0.733
NCI-H1993	1.16	0.952	0.927	1.25	1.01	0.844	0.73	0.668	0.682	0.668	0.634	0.705	0.502	0.501	0.455	1.07	0.627	0.89	0.947	0.737
NCI-H2009	1.13	0.999	1.03	0.716	0.982	1.23	1.25	1.16	1.24	1.21	0.745	0.635	0.53	0.331	0.275	0.716	0.875	0.738	0.673	0.784
NCI-H2023	1.04	1.03	0.964	0.837	1.17	0.698	0.911	0.849	0.628	0.895	0.363	0.334	0.277	0.16	0.136	0.683	0.724	0.653	0.628	0.595
NCI-H2085	0.927	0.949	1.13	1.03	1.04	0.971	1.13	0.792	0.76	0.959	0.961	0.8	0.733	0.633	0.538	0.805	0.842	0.853	0.922	0.804
NCI-H2087	0.859	0.805	0.824	0.65	0.766	1	1.06	0.916	1.05	0.535	0.252	0.243	0.218	0.152	0.142	0.661	0.748	0.729	0.573	0.774
NCI-H2126	1.05	1.08	1.19	1.16	1.14	1.15	1.26	1.06	0.986	1.17	0.898	0.849	0.861	–	0.378	0.852	0.645	0.679	0.792	0.713
NCI-H2228	1.29	1.11	1.19	1.05	1.11	1.09	0.848	0.647	0.746	0.801	0.297	0.28	0.247	0.208	0.166	0.576	0.96	0.957	0.724	1
NCI-H2347	1.07	0.92	0.724	–	1.04	0.8	0.714	0.798	–	0.896	0.634	0.637	0.674	0.45	0.395	0.569	0.645	0.641	0.494	0.66
NCI-H2405	0.892	0.703	0.968	–	1	1.06	1.02	1.06	–	1.12	0.874	0.794	0.345	0.224	0.24	0.943	–	1.11	1.03	1.21
